We go through three molecules from publication PMC12254416, “The antimethanogenic efficacy and fate of bromoform and its transformation products in rumen fluid” (Scientific Reports, 2025).

Series [1] is described as follows: Compound tracing incubation in autoclaved rumen fluid (abiotic control plus inhibitor, AC+). The format is in vitro ADME, Holstein cattle. From the text:
(§1) Animals used in this study were cared for according to the guidelines of William H. Miner Agricultural Research Institute (Chazy, NY) Animal Care and Use Committee. Rumen fluid was collected by cannulation from four healthy, lactating Holstein cattle maintained on the same diet for five weeks with approval from the William H. Miner Agricultural Research Institute (Chazy, NY) Animal Care and Use Committee and in compliance with SOP#106.
(§2) Donor cow profiles and dietary information can be found in supplemental information (Table S1 and Table S2). Rumen samples were strained through four layers of cheesecloth, placed on ice and shipped overnight to Bigelow Laboratory for Ocean Sciences at weekly intervals for three consecutive weeks. Upon arrival, the four samples were combined under anaerobic conditions. Sub-samples of the rumen fluid blend were flash-frozen in liquid nitrogen and stored at −20 °C for later analysis of initial pH, ammonia (NH3), and volatile fatty acids (VFAs). The rumen fluid blend was kept air-tight, on ice at 4 °C until used for experimental incubations within four days[34],[35].
(§3) This study utilized an in vitro technique of directly incubating rumen fluid for short-term experiments (< 6 h). The in vitro experiments were performed in accordance with guidelines reviewed in Yáñez-Ruiz et al.[36]. In order to investigate the response to and transformation of methanogenesis inhibitors, experiments included combinations of the following treatment groups: (i) biotic control (BC): live rumen fluid containing no inhibitors, (ii) biotic plus inhibitor (B+): live rumen fluid containing an inhibitor, (iii) abiotic control plus inhibitor (AC+): rumen fluid sterilized by autoclave (121 °C, 15 psi for 1 h) and containing an inhibitor. Prior to the incubation experiments, 80 ml aliquots of blended rumen fluid were added to 120 ml glass serum bottles and sealed with PTFE septa under anaerobic conditions (80% nitrogen, 15% carbon dioxide, 5% hydrogen). Experiments consisted of a series of 15 to 18 bottles of the same batch of refrigerated rumen fluid incubated in parallel. To revive the microbial activity at the start of each experiment, the incubation bottles, including the killed controls, were brought to 40 °C in a recirculating water bath within 15 min. The bottles thermally equilibrated for another 30 min before the experiment was initiated. The experiment was initiated after headspace sampling (T0) and the designated treatment was added. The incubation proceeded for ~ 4–6 h at 40 °C.
(§4) Two experimental designs were run: i) compound tracing experiments, to investigate the lifetime and transformation of inhibitors; and ii) dose-response experiments, to determine the sensitivity of methanogenesis to inhibitors (Fig. 1). Dose-response experiments included biotic controls (BC), and a series of nine biotic plus inhibitor treatments (B+) across a range of concentrations (0 to 25 µM) containing the specific inhibitor (bromoform (Sigma-Aldrich 99%), dibromomethane (Sigma-Aldrich 99%), bromomethane (Supelco TraceCERT®), or Asparagopsis taxiformis. The A. taxiformis was collected fresh from a marine site in the subtropical Atlantic (27° 59’ 19”, −15° 22’ 12”) and stored frozen at −20 °C. The sample material contained 0.33 ± 0.02 mg bromoform g^−1 dry weight.
(§5) Tracing experiment treatments included biotic controls (BC), biotic plus inhibitors (B+), and abiotic plus inhibitors (AC+) of a single concentration of the target compound, each in triplicate. Target compounds bromoform, dibromomethane, and bromomethane, were injected through the septa as solutions in methanol (VWR 99.9%). The corresponding levels of methanol, which ranged from 30 to 950 µl, were added to the control treatments, depending on the desired inhibitor concentration. The A. taxiformis was cut into fine pieces, homogenized, pre-weighed into PTFE capsules and placed in the incubation bottles prior to incubation. […]

A short description of series [2]: Compound tracing incubation in live rumen fluid (biotic plus inhibitor, B+). It counts as in vitro ADME, Holstein cattle. The settings on record: for Rate constant, biological loss: difference between total loss (B+) and abiotic loss (AC+); for ½ life, biological loss: from difference of B+ and AC+ rates; for ½ life, loss (total, biotic incubation) / Rate constant, loss (total, biotic incubation): live rumen fluid B+, 40 °C; for Rate constant, loss (total, biotic incubation): compound added alone.
Excerpt: as §1, §2, §3, §4, §5

In series [3] the test system is CH4 production in rumen fluid. Briefly: CH4 production in in vitro rumen fluid incubations (dose-response and single-dose inhibition). It counts as cell-based, Holstein cattle. The settings on record: for Concentration range of the dose response: CH4 production vs inhibitor concentration, for bromomethane the extent of the range; for Concentration at which the sigmoidal concentration-inhibition relationship occurred: abstract; for Time after addition to reduced CH4 production: bromoform addition, vs control; for CH4 production relative to the no treatment control: concentrations > 2 µmol l^−1; for maximum value of CH4 production (dose-response fit) / minimum value of CH4 production (dose-response fit): cumulative CH4 over 240 min, 80 ml rumen fluid; for maximum value of CH4 production (dose-response fit) / minimum value of CH4 production (dose-response fit) / EC50 / coefficient b of log-logistic dose-response curve: ± standard error; for EC50: cumulative CH4 over 240 min vs initial concentration, read-out: ec-50, 50 % inhibition of CH4 production; for coefficient b of log-logistic dose-response curve: cumulative CH4 production over 240 min vs initial inhibitor concentration.
Excerpt: as §1, §2, §3, §4, §5

Series [4] can be described thus: Loss to headspace volume estimated from Henry's Law solubility constants. It counts as physicochemical. As to conditions: based on Henry's Law solubility constants, during the incubations. As for the experimental part: Based on the Henry’s Law solubility constants for bromoform and dibromomethane, loss to the headspace volume during the incubations would have amounted to < 5% of the dissolved pool of either compound and therefore, had minimal influence on estimated loss and turnover rates. In contrast, approximately 40% of any bromomethane produced during the tracing experiments may have been lost to the headspace gas sampling and may have contributed to the lack of evidence of bromomethane production.

Details of series [5]: method as in earlier work. As to conditions: incubation times up to 72 h; ref 33 Romero et al.; cited from earlier work.
The mark [6] stands for this setting: bromoform-amended autoclaved rumen fluid (Exp1).
Where [7] appears, read: bromoform-amended live rumen fluid (Exp1).

Entries after “also recorded” stand apart in the source; their conditions may differ. Some results are limits rather than exact numbers.

Take `BrC(Br)Br` [bromoform]: in series [1] (autoclaved rumen fluid AC+), the “½ life, abiotic loss” value is 102 min. In series [1] (autoclaved rumen fluid AC+, 40 °C), the “Rate constant, abiotic loss” value is given as -6.8 ± 0.3 x 10^-3min^-1. For the same molecule, the “Loss rate in live rumen fluid relative to autoclaved control” value in series [2] (B+ vs AC+) is “more than 3 fold”. In addition, in series [2], the “Rate constant, biological loss” value is given as -19.6 ± 1.2 x 10^-3min^-1; the “½ life, biological loss” value was 35 min; the “½ life, loss (total, biotic incubation)” value is given as ~ 26 min; the “Rate constant, loss (total, biotic incubation)” value is listed as -26.4 ± 1.3 x 10^-3min^-1. In addition, the “½ life, loss (total, biotic incubation)” value in series [2] (listed as Bromoform) stood at 26 min. Further, in series [3], the “Inhibition threshold for CH4 production” value is recorded as ~ 1 µmol l^−1, the “Concentration range of the dose response” value was 1 to 2 µmol/L, the “Concentration at which the sigmoidal concentration-inhibition relationship occurred” value lay in the range of 1 to 2 µM and the “Time after addition to reduced CH4 production” value is < 60 min. In series [3], the “CH4 production relative to the no treatment control” value is given as < 20%, the “maximum value of CH4 production (dose-response fit)” value (“maximum value of CH4 production” for short) amounted to 681 ± 14 µmol, the “minimum value of CH4 production (dose-response fit)” value (“minimum value of CH4 production” below) is 98 ± 16 µmol and the EC50 came to 1370 ± 30 nM. Besides, in series [3], the “coefficient b of log-logistic dose-response curve” value was 5.98 ± 0.76. Moreover, the “CH4 inhibition vs biotic control” value in series [3] (bromoform 3 µmol l^−1, after 260 min (Exp 4)) is listed as 78%. Also, in series [3] (listed as CHBr3), the “Time after addition to reduced CH4 production” value is ≤ 60 min. Also, the “Inhibition of CH4 production” value in series [3] (total bromoform addition of 3 µmol l^−1, ~300 min (Exp 3)) is > 75%. The “Loss to the headspace volume, share of the dissolved pool / of compound produced” value in series [4] is < 5%.
As for `BrCBr` [dibromomethane], in series [1] (AC + A.tax (Exp 4)), the “Dibromomethane as % of the maximum bromoform concentrations, abiotic” value amounted to 1.3% and the “Dibromomethane at the end of the incubation after A. taxiformis addition, abiotic” value was 0.030 ± 0.001 µmol/L. Also, the “½ life, abiotic loss” value in series [1] (autoclaved rumen fluid AC+) was found to be 10200 min. In addition, in series [1] (setting [6]), the “Dibromomethane abiotic production rate” value was 0.0014 ± 0.0001 µmol/L/min and the “Yield of dibromomethane, % of the initial bromoform added, abiotic” value stood at 3.4%. Moreover, in series [1] (bromoform-amended autoclaved rumen fluid (Exp1), listed as Dibromomethane), the “Yield of dibromomethane, % of the initial bromoform added, abiotic” value was 3.4%. Further, in series [2] (B + A.tax (Exp 4)), the “Peak dibromomethane as % of the highest observed bromoform, biotic” value was 22.0% and the “Peak level of dibromomethane after A. taxiformis addition, biotic” value is 0.076 ± 0.006 µmol/L. For the same molecule, in series [2] (setting [7]), the Dibromomethane production rate came to 0.0353 ± 0.0024 µmol/L/min and the “Yield of dibromomethane, % of the initial bromoform added” value stood at 22.1%. For the same molecule, the “Biotic loss slower than the loss of bromoform” value in series [2] (dibromomethane vs bromoform, biotic) was ~30 fold. Besides, in series [2], the “Rate constant, biological loss” value is recorded as -0.826 ± 0.113 x 10^-3min^-1; the “½ life, biological loss” value is listed as 839 min; the “½ life, loss (total, biotic incubation)” value was 775 min; the “Rate constant, loss (total, biotic incubation)” value was -0.894 ± 0.091 x 10^-3min^-1. Besides, in series [5], the “Dibromomethane produced as proportion of the degraded bromoform” value is 20 to 40%. In series [3], the “Concentration range of the dose response” value lay in the range of 1 to 2 µmol/L, the “Concentration at which the sigmoidal concentration-inhibition relationship occurred” value was 1 to 2 µM, the “CH4 production relative to the no treatment control” value is < 20% and the “maximum value of CH4 production” value is 763 ± 16 µmol. Moreover, in series [3], the “minimum value of CH4 production” value stood at 146 ± 8 µmol, the EC50 came out at 1360 ± 30 nM and the “coefficient b of log-logistic dose-response curve” value is 7.46 ± 0.92. In series [4], the “Loss to the headspace volume, share of the dissolved pool / of compound produced” value is < 5%.
Regarding `CBr` [bromomethane], in series [2] (tracing incubations, limit of detection 8 nmol l^−1), the “Production of bromomethane in incubations” value is listed as “no bromomethane was detected; also recorded: not detected; also recorded: no detectable bromomethane production”. Further, in series [3] (CH4 production dose response (Exp7)), the “Concentration required to achieve a maximal inhibitory effect” value is > 20 µmol/L. Besides, in series [3], the “maximum value of CH4 production” value is 616 ± 6 µmol, the “minimum value of CH4 production” value amounted to 182 ± 7 µmol, the EC50 came out at 5340 ± 140 nM and the “coefficient b of log-logistic dose-response curve” value worked out at 3.09 ± 0.24. Besides, the “EC50 relative to bromoform and dibromomethane” value in series [3] (higher) is ~5 fold. Further, in series [4], the “Loss to the headspace volume, share of the dissolved pool / of compound produced” value is recorded as “approximately 40%”.
